Literature values as cited in US20160114057A1, “MODULAR PROTEIN DRUG CONJUGATE THERAPEUTIC” (ZYMEWORKS INC., priority 2013, published 2016).
pIC50: −log10 of the molar value. Values joined by “and” are separate entries in the source; they are usually repeats but may differ in a detail not shown here. Equal values may be shown once. Read-outs that look alike come from different tables or passages of the source. *1 amine or outer side, *2 acyl side, *3 side chain or, on linkers, in order; H or OH if unused. Where a SMILES comes first, the peptide text is derived from it. Bridges are numbered along the chain shown (N, C = ends). [ ]: non-standard residue; d: D form. The star is where a group is joined. X2 = CC[C@@H](C)C[C@H](N[*:1])C(=O)[*:2]; X1 = CC[C@H](C)CC(N[*:1])C(=O)[*:2]; d(aThr) = C[C@@H](O)[C@@H](N)C(=O)O; NMe2Val = CC(C)[C@@H](C(=O)*)N(C)C; NMeT = CN[C@H](C(=O)O)[C@@H](C)O; Suc = O=C(CCC(=O)[*:2])[*:1]; NMeV = CN[C@H](C(=O)O)C(C)C; NHBn = c1ccc(CN*)cc1; Dha = C=C(N)C(=O)O

Key:
[1] = tested on: NCI tumor panel (60 cell line); settings: for pIC50: range over cell lines
[2] = in vivo

COc1cc2cc(c1Cl)N(C)C(=O)C[C@H](OC(=O)[C@H](C)N(C)C(C)=O)[C@]1(C)O[C@H]1[C@H](C)[C@@H]1C[C@@](O)(NC(=O)O1)[C@H](OC)/C=C/C=C(\C)C2 [Maytansine]
Toxicity (in words): severe toxicity

C=C1C[C@@H]2C[C@@H]3C[C@@H](O)C[C@@H](O3)c3coc(n3)/C=C/C[C@H]3O[C@@H](/C(C)=C/c4coc(C[C@]5(O)CC(OC)C[C@H]([C@H](O)/C=C(C)/C=C/C(C/C=C/Br)OC)O5)n4)[C@H](C)[C@@H](OC(=O)/C=C\C[C@@H](C1)O2)[C@H]3C (some centres unmarked) [Phorboxazole A]
pIC50 ([1]; NCI tumor panel): 8.00 to 9.00

C/C(=C\c1csc(CN)n1)[C@@H]1C[C@@H]2O[C@]2(C)CCC[C@H](C)[C@H](O)[C@@H](C)C(=O)C(C)(C)[C@@H](O)CC(=O)O1 [BMS-310705]
t1/2 [2]: 3.5 hrs; improved | pIC50 (various tumor cell lines; broad activity, read-out: IC50): 8.00 to 9.15 | Toxicity (in words) (in vivo): adverse events

C=C(Cl)/C=C/[C@@H](O)CC(=C)C[C@H]1O[C@@H]2[C@H](C)[C@@H](OC(=O)C[C@@H]3C[C@H](OC(C)=O)C[C@@]4(C[C@@](C)(O)C[C@H](CC(=C)[C@@H](C)C(OC(C)=O)[C@H](C)C(=O)C[C@@H]5C[C@H](OC)C[C@@]6(C[C@@H](O)C[C@H](/C=C\CCC[C@H]7O[C@](O)(C[C@H](O)[C@H]7C)[C@H]2O)O6)O5)O4)O3)[C@@H]1O (some centres unmarked) [Spongistatins (1-9)]
activity in NCI tumor panel (in words) [1]: Most potent | GI50 ([1]; NCI panel cell line, read-out: mean GI50): 100 pM

CC[C@H](C)[C@@H]([C@@H](CC(=O)N1CCC[C@H]1[C@H](OC)[C@@H](C)C(=O)N[C@@H](Cc1ccccc1)c1nccs1)OC)N(C)C(=O)[C@@H](NC(=O)[C@H](C(C)C)N(C)C)C(C)C [Dolastatin-10]
concentration with myelotoxicity (in vivo): greater than 0.3 pM)

CCCC1C(=O)O[C@H](/C(C)=C/c2csc(C)n2)C[C@@H]2O[C@]2(C)CCC[C@H](C)[C@H](O)[C@@H](C)C(=O)C(C)(C)[C@H]1O (some centres unmarked) [ZK-EPO]
activity against multi-drug/drug resistant cell lines (in words) (MDR cell lines): active in drug

COc1ccc(C[C@H]2NC(=O)/C=C/C[C@@H]([C@H](C)[C@H]3O[C@@H]3c3ccccc3)OC(=O)[C@H](CC(C)C)OC(=O)CCNC2=O)cc1 [Arenastatin A analogs]
Activity (IC50) (KB; KB (nasopharyngeal)): 0.005 ng/mL | pIC50 (KB; KB, read-out: Activity (IC50)): 8.06

COc1ccc(C[C@H]2NC(=O)/C=C/C[C@@H]([C@H](C)[C@@H](O)[C@@H](Cl)c3ccccc3)OC(=O)[C@H](CC(C)C)OC(=O)[C@H](C)CNC2=O)cc1Cl [Cryptophycin 8]
activity in cell culture (in words) (various tumor cell lines): broad spectrum

C=CC[C@@H](CC/C(C)=C/C=C/CC/C=C\[C@@H]1CSC([C@@H]2C[C@@H]2C)=N1)OC [Curacin A and analogs]
pIC50 (various tumor cell lines; broad activity (cancer cell lines), read-out: Activity (IC50)): 7.54 to 9.00

CCCCCCCCCCCCCCCC(=O)OC1CC(C(C)C(OC)/C(C)=C/C=C/C(C)=C/c2coc(C)n2)OC(=O)C2OC2CC2CC(=O)OC(C2)C(C)/C=C/C2OC21C (centres unmarked) [Palmitoylrhizoxin]
Toxicity (in words): binds LDL; less

CC(C)[C@H](NC(=O)[C@H](C(C)C)N(C)C)C(=O)N(C)[C@H](C(=O)N1CCC[C@H]1C(=O)N1CCC[C@H]1C(=O)NCc1ccccc1)C(C)C [Cemadotin] (NMe2Val-V[NMeV]PP-NHBn)
Toxicity (in words): hypertension, | activity in NCI tumor panel (in words) [1]: active in breast,

CC(=O)O[C@H]1C(=O)[C@@]2(C)[C@H]([C@H](OC(=O)c3ccccc3)[C@]3(O)C[C@H](OC(=O)[C@H](O)[C@@H](NC(=O)c4ccccc4)c4ccccc4)C(C)=C1C3(C)C)[C@]1(OC(C)=O)CO[C@@H]1C[C@@H]2O [Taxol]
Toxicity (in words) (in vivo): severe toxicity

C=C1NC(=O)[C@H]([C@@H](C)CC)NC(=O)[C@@H]2CSSC[C@H](NC(=O)CCC(=O)O)C(=O)N[C@H](Cc3ccccc3)C(=O)N[C@H](C)C(=O)NC(C[C@@H](C)CC)C(=O)N[C@@H](C(=O)N[C@H](Cc3ccccc3)C(=O)N3CCC[C@H]3C(=O)N2)[C@@H](C)OC(=O)[C@H](CO)NC(=O)[C@H]([C@@H](C)OC)N(C)C(=O)[C@@H](C(C)C)NC(=O)[C@H](C[C@H](C)CC)NC1=O (some centres unmarked) [Vitilevuamide] (Suc-C[dF][dA][X1][d(aThr)][dF]PCI[Dha][X2][dV][NMeT](Me)S; disulfide 1-8; ester 5-C)
pIC50 (various tumor cell lines; panel of tumor cell lines HCT116, A549, SK-MEL-5, A498 cells, read-out: IC50): 6.51 to 8.22

COc1ccc(C[C@H]2NC(=O)/C=C/C[C@@H]([C@H](C)[C@H]3O[C@@H]3c3ccccc3)OC(=O)[C@H](CC(C)C)OC(=O)C(C)(C)CNC2=O)cc1Cl [Cryptophycin analogs (including 52, 55 and others)]
activity against multi-drug/drug resistant cell lines (in words) (MDR cell lines): pM; active against | pIC50 (various tumor cell lines; broad activity (lung, breast, colon, leukemia), read-out: IC50): 10.40 to 11.70

C=C(Cl)/C=C/[C@@H](O)CC(=C)C[C@H]1O[C@@H]2[C@H](C)[C@@H](OC(=O)C[C@@H]3C[C@H](OC(C)=O)C[C@@]4(C[C@@](C)(O)C[C@H](CC(=C)[C@@H](C)C(OC(C)=O)[C@H](C)C(=O)C[C@@H]5C[C@H](OC)C[C@@]6(C[C@@H](O)C[C@H](/C=C\CCC[C@H]7O[C@](O)(C[C@H](O)[C@H]7C)[C@H]2O)O6)O5)O4)O3)[C@@H]1O (some centres unmarked) [Spongistatin-1]
GI50 ([1]; NCI tumor panel, values or ends of the range over cell lines, read-out: GI50): ≥ 25 pM and ≤ 35 pM

CC/C=C\C=C/C(=O)N/C=C/CC1CC2CC(O)CC(Cc3cccc(O)c3C(=O)O1)O2 (centres unmarked) [Apicularen A]
IC50 (various tumor cell lines): IC50's of 0.1 to 3 ng/mL

Halichondrin B
Toxicity (in words) (in vivo): myelotoxicity dose

CO[C@]12C=C[C@](C)(O1)[C@@H](OC(=O)/C=C/c1cn(C)cn1)C[C@H]1C(C)=CC[C@H](C(C)C)[C@H]1/C=C\2CO[C@@H]1OC[C@@H](O)[C@@H](O)[C@@H]1OC(C)=O [Eleutherobins]
activity against multi-drug/drug resistant cell lines (in words) (MDR cell lines): taxol; not effective

CCCC1(O)C(O)C(C)C/C=C/C=C/C(CC(C)O)CCC2OC3(CCC(C)C(C(C)C(O)CC)O3)C(C)C(OC(=O)/C=C/C(C)C(O)C(C)C(O)C(OC3CCC(O)C(C)O3)C(O)C(O)C1O)C2C (centres unmarked) [IB-96212]
IC50 (P388): 0.1 P388 ng/mL

COc1cc([C@@H]2c3cc4c(cc3[C@H](O)[C@H]3COC(=O)[C@H]23)OCO4)cc(OC)c1OC [Podophyllotoxin]
activity in cell culture (in words) (various tumor cell lines): in μM range

C=C1C[C@@H]2CCO[C@H]3[C@@H]4O[C@H]5CC[C@H](CC(=O)O[C@@H]6[C@@H](C)[C@@H]7O[C@@H]8C[C@]9(C[C@@H]%10O[C@]%11(C[C@H](C)[C@@H]%12O[C@H](CC(=O)CCO)[C@H](O)C[C@@H]%12O%11)C[C@H](C)[C@@H]%10O9)O[C@@H]8C[C@@H]7O[C@H]6C[C@H]6O[C@@H](CC[C@@H]1O2)C[C@@H](C)C6=C)O[C@@H]5[C@@H]1OCC[C@H]3O[C@@H]14 [Isohomo-halichondrin B]
pIC50 ([1]; NCI tumor panel): ~10.00

CO[C@@H](/C(C)=C/C=C/C(C)=C/c1coc(C)n1)[C@@H](C)[C@@H]1C[C@H](O)[C@@]2(C)O[C@@H]2/C=C/[C@@H](C)[C@H]2C[C@H](CC(=O)O2)C[C@H]2O[C@H]2C(=O)O1 [Rhizoxin]
Toxicity (in words): Rapid Drug

C=C(C)[C@@H]1NC(=O)[C@@H](NC)[C@@H](O)c2cc(Cl)c(O)c(c2)O[C@](C)(CC)[C@@H](C(=O)N2CC=C[C@H]2C(=O)N/C(C(=O)N/C(=C/C(=O)O)C(=O)O)=C(\C)CC)NC1=O [Phomopsin A]
activity in cell culture (in words) (various tumor cell lines): potent anticancer
